Test results as given in patent US20150374676A1, “HELICASE-PRIMASE INHIBITORS FOR USE IN A METHOD OF TREATING ALZHEIMER'S DISEASE” (AICURIS GMBH & CO. KG, priority 2013, published 2015).
Read-outs that look alike come from different tables or passages of the source.

Assay: Single-dose escalation pharmacokinetics in volunteers
Format: in vivo, human
Conditions: human, mean, n = 6; for Ae: excreted in urine; for AUC(0-inf) / Cmax: free base in plasma
Description: Exposure of the free base form of N-[5-(aminosulfonyl)-4-methyl-1,3-thiazol-2-yl]-N-methyl-2-[4-(2-pyridinyl)-phenyl]acetamide to the human body may be measured by high pressure liquid chromatography (HPLC) by looking at different pharmacokinetic parameters in suitable bodily fluids such as for instance blood plasma and urine, the most common parameters being the Cmax, the so-called area under the curve (AUC), and the terminal half-life (t1/2Z). Hereto, the person skilled in the art understands that said parameters are determined by using adequate bioanalytical methods with adequate sensitivity, specificity, ruggedness, stability and repeatability, as for instance a qualified liquid chromatography triple quad mass spectrometry based method coupled with a suitable extraction method for the separation of the analyte from, e.g. the blood plasma.
Therefore, pharmacokinetic studies in human subjects were undertaken following both single and multiple dose administrations of the crystalline mono mesylate monohydrate salt of N-[5-(aminosulfonyl)-4-methyl-1,3-thiazol-2-yl]-N-methyl-2-[4-(2-pyridinyl)phenyl]acetamide, wherein the particle size distribution is preferably defined by d(0.1) from 2 to 100 μm, d(0.5) from 30 to 210 μm and d(0.9) from 70 to 400 μm with a specific surface area of the particles less than 1.0 m^2/g, and more preferably defined by d(0.1) from 10 to 75 μm, d(0.5) from 100 to 175 μm, d(0.9) from 200 to 350 μm with a specific surface area of the particles less than 0.3 m^2/g.
Single oral doses of the crystalline mono mesylate monohydrate salt of N-[5-(aminosulfonyl)-4methyl1,3thiazol-2-yl]-N-methyl-2-[4-(2-pyridinyl)phenyl]acetamide using the formulations in accordance with example a and Table a, were administered to six volunteers per dose step. The overall shape of the plasma concentrations vs. time profiles were similar across all doses applied (see FIG. 4 and FIG. 6).
Table b: Pharmacokinetic parameters after ascending single oral doses of crystalline mono mesylate monohydrate salt of N-[5-(aminosulfonyl)-4-methyl-1,3-thiazol-2-yl]-N-methyl-2-[4-(2-pyridinyl)phenyl]acetamide in the formulations in accordance with table a wherein the particle size distribution is preferably defined by d(0.1) from 2 to 100 μm, d(0.5) from 30 to 210 μm and d(0.9) from 70 to 400 μm with a specific surface area of the particles less than 1.0 m^2/g, and more preferably defined by d(0.1) from 10 to 75 μm, d(0.5) from 100 to 175 μm, d(0.9) from 200 to 350 μm with a specific surface area of the particles less than 0.3 m^2/g.
AUC0-∞: Area under the analyte vs. time concentration from time of administration up to infinity, calculated as
wherein AUC0-last is defined as the area under the analyte vs. time concentration up to time of the last qualifiable concentration, calculated by linear up/log down summation and Clast is defined as last quantifiable observed analyte concentration. λz is the apparent terminal elimination rate constant, determined by linear regression of terminal points of In-linear analyte concentration-time curve.
Cmax is the maximal observed analyte concentration and tmax is the time to reach Cmax;
t1/2z is defined as the apparent terminal elimination half-life, calculated as
MRT: Mean Residence Time; calculated AUMC divided by AUC, wherein AUMC is the area under the first moment of the concentration-time curve from zero up to ∞ with extrapolation of the terminal phase and AUC is the area under the concentration-time curve from zero up to ∞ with extrapolation of the terminal phase.
CL/F refers to the clearance after oral administration of a drug and Ae refers to the amount of drug excreted in the urine.

[1] = single oral dose 5 mg free base equivalent
[2] = single oral dose 10 mg free base equivalent
[3] = single oral dose 20 mg free base equivalent
[4] = single oral dose 40 mg free base equivalent
[5] = single oral dose 80 mg free base equivalent, females
[6] = single oral dose 80 mg free base equivalent, males
[7] = single oral dose 160 mg free base equivalent
[8] = single oral dose 240 mg free base equivalent
[9] = single oral dose 320 mg free base equivalent
[10] = single oral dose 400 mg free base equivalent
[11] = single oral dose 480 mg free base equivalent
[12] = single oral dose 600 mg free base equivalent

CL/F [1]: 0.89 L/h | t1/2z [1]: 80 h | AUC(0-inf) [1]: 5.8 µg·h/mL | Cmax (single oral dose 5 mg free base equivalent, read-out: Cmax): 74 ng/mL | CL/F [2]: 0.87 L/h | t1/2z [2]: 85 h | AUC(0-inf) [2]: 11.7 µg·h/mL | Cmax (single oral dose 10 mg free base equivalent, read-out: Cmax): 170 ng/mL | CL/F [3]: 1.10 L/h | t1/2z [3]: 76 h | AUC(0-inf) [3]: 18.5 µg·h/mL | Cmax (single oral dose 20 mg free base equivalent, read-out: Cmax): 234 ng/mL | CL/F [4]: 1.00 L/h | t1/2z [4]: 72 h | AUC(0-inf) [4]: 40.7 µg·h/mL | Cmax (single oral dose 40 mg free base equivalent, read-out: Cmax): 608 ng/mL | CL/F [5]: 0.85 L/h | t1/2z [5]: 58 h | CL/F [6]: 0.94 L/h | t1/2z [6]: 74 h | CL/F [7]: 1.28 L/h | t1/2z [7]: 63 h | AUC(0-inf) [7]: 131 µg·h/mL | Cmax [7]: 2613 ng/mL | CL/F [8]: 1.15 L/h | t1/2z [8]: 64 h | AUC(0-inf) [8]: 217 µg·h/mL | Cmax [8]: 3600 ng/mL | CL/F [9]: 1.47 L/h | t1/2z [9]: 57 h | AUC(0-inf) [9]: 241 µg·h/mL | Cmax [9]: 4648 ng/mL | CL/F [10]: 1.31 L/h | t1/2z [10]: 57 h | AUC(0-inf) [10]: 320 µg·h/mL | Cmax [10]: 6926 ng/mL | CL/F [11]: 1.33 L/h | t1/2z [11]: 53 h | AUC(0-inf) [11]: 387 µg·h/mL | Cmax [11]: 6921 ng/mL | CL/F [12]: 2.00 L/h | t1/2z [12]: 52 h | AUC(0-inf) [12]: 321 µg·h/mL | Cmax (single oral dose 600 mg free base equivalent, read-out: Cmax): 6440 ng/mL
SMILES: CS(=O)(=O)O.Cc1nc(N(C)C(=O)Cc2ccc(-c3ccccn3)cc2)sc1S(N)(=O)=O [mono mesylate monohydrate salt, N-[5-(aminosulfonyl)-4-methyl-1,3-thiazol-2-yl]-N-methyl-2-[4-(2-pyridinyl)-phenyl]acetamide mono methanesulfonic acid monohydrate]
Ae [1]: 0 % of dose | Ae [2]: 0 % of dose | Ae [3]: 0 % of dose | Ae [4]: 0 % of dose | Ae [5]: 0.31 % of dose | Ae [6]: 0.16 % of dose | Ae [7]: 0.15 % of dose | Ae [8]: 0.21 % of dose | Ae [9]: 0.16 % of dose | Ae [10]: 0.15 % of dose | Ae [11]: 0.26 % of dose | Ae [12]: 0.09 % of dose
